This note sets out measurements from ChEMBL document CHEMBL1201862, “PubChem BioAssay data set” (2004).

Test systems include SK-MEL-5; PC-3; SW-620; TK-10; SR; HCT-15; NCI-H23; EKVX; CCRF-CEM; M14; K562; NCI/ADR-RES; BT-549; SF-268; RXF 393; UACC-257; OVCAR-3; OVCAR-4; SK-OV-3; A498.
Common to all, as to assay: inhibition of tumour cell growth, NCI panel, 48 h

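Following 48 hours of exposure in 96-well plates, responses at five concentrations were used to interpolate endpoints linearly. GI50 is the concentration that inhibits growth by half.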 Calls of active or inactive are those of the source. Rule as the data show it: active = GI50 up to about 1.1 µM and inactive = higher. Where a SMILES comes first, the peptide text is derived from it. The star is where a group is joined. Boc = CC(C)(C)OC(=O)*; OSu = O=C1CCC(=O)N1O* A value given as a limit tells only on which side of the number the result lay.

Take `CC(=N/NC(N)=S)/C(C)=N/NC(N)=S`: the GI50 with SK-MEL-5 was > 100 µM (inactive); in the assay with PC-3, > 100 µM (inactive); in the assay on SW-620, > 100 µM (inactive); in the assay on TK-10 it was > 100 µM (inactive); in the assay on SR, > 100 µM (inactive); in the assay on HCT-15, over 100 µM. Moreover, the GI50 with NCI-H23, with EKVX, with CCRF-CEM, in the assay on M14, with K562 and in the assay on NCI/ADR-RES was > 100 µM (inactive) in each case. Also, the GI50 in the assay with BT-549, with SF-268, with RXF 393, with UACC-257 and with OVCAR-3 was > 100 µM (inactive) in each case.
As for `Nc1ccccc1OCc1cc(=O)c(OCc2ccccc2)co1`, the GI50 was 18.8 µM (inactive) in the assay on SK-MEL-5; 34.4 µM (inactive) with PC-3; 80.7 µM (inactive) in the assay on SW-620; 18.8 µM (inactive) in the assay with TK-10; > 100 µM (inactive) in the assay with SR; 24.2 µM in the assay on HCT-15. Further, the GI50 with NCI-H23 is 39.6 µM (inactive); with EKVX it was 24.1 µM (inactive); in the assay on CCRF-CEM it was > 100 µM (inactive); in the assay on M14 it was 17.7 µM (inactive); in the assay on K562 it was 2.75 µM (inactive); in the assay with NCI/ADR-RES, 10.2 µM (inactive). The GI50 with OVCAR-4 was 62.1 µM (inactive); in the assay on BT-549, 33.5 µM (inactive); in the assay on SF-268, 15.9 µM (inactive); in the assay on SK-OV-3 it was 23.6 µM (inactive); in the assay with UACC-257 it was 14.3 µM (inactive); in the assay with OVCAR-3, 22.9 µM (inactive).
With `Fc1cc(-c2cc(-c3ccc4c(c3)OCO4)n[nH]2)c(Cl)cc1Cl`, the GI50 with SK-MEL-5 is 6.38 µM (inactive); in the assay on PC-3, 3.62 µM (inactive); in the assay on SW-620 it was 4.6 µM (inactive); in the assay with TK-10, 3 µM (inactive); in the assay on SR, 7.29 µM (inactive); in the assay with HCT-15 it was 7.71 µM. The GI50 was 2.47 µM (inactive) in the assay with NCI-H23; 1.75 µM (inactive) in the assay with EKVX; 11.9 µM (inactive) in the assay on CCRF-CEM; 4.75 µM (inactive) with M14; 4.45 µM (inactive) with K562; 3.33 µM (inactive) in the assay on NCI/ADR-RES. In addition, the GI50 is 1.91 µM (inactive) in the assay with OVCAR-4; 6.59 µM (inactive) with BT-549; 3.24 µM (inactive) in the assay with SF-268; 2.13 µM (inactive) in the assay with SK-OV-3; 1.89 µM (inactive) in the assay on RXF 393; 9.82 µM (inactive) in the assay with UACC-257. Moreover, in the assay with OVCAR-3, the GI50 was 2.21 µM (inactive).
For `COC(=O)C1CCOC(C)N1C(=O)OC(C)(C)C` (centres undefined), the GI50 with SK-MEL-5 is > 100 µM (inactive); in the assay on PC-3 it was > 100 µM (inactive); with SW-620, > 100 µM (inactive); in the assay with TK-10, > 100 µM (inactive); with SR, > 100 µM (inactive); in the assay on HCT-15 it was over 100 µM. Also, the GI50 in the assay with NCI-H23, in the assay with EKVX, with CCRF-CEM, with M14, with K562 and in the assay with NCI/ADR-RES was > 100 µM (inactive) in each case. In addition, the GI50 in the assay on OVCAR-4, with BT-549, in the assay with SF-268, with SK-OV-3, in the assay with RXF 393 and with UACC-257 was > 100 µM (inactive) throughout. In the assay on OVCAR-3, the GI50 is > 100 µM (inactive).
Consider `CNc1nc(=O)c(C#N)c(-c2ccc(C)cc2)s1`, for which the GI50 in the assay with SK-MEL-5 was > 100 µM (inactive); in the assay with PC-3, > 100 µM (inactive); with SW-620, > 100 µM (inactive); with TK-10, > 100 µM (inactive); in the assay with SR it was > 100 µM (inactive); with HCT-15, over 100 µM. Further, the GI50 in the assay on NCI-H23 is > 100 µM (inactive); with EKVX, 67.6 µM (inactive); in the assay with CCRF-CEM, > 100 µM (inactive); with M14 it was > 100 µM (inactive); in the assay with K562, > 100 µM (inactive); in the assay with NCI/ADR-RES it was > 100 µM (inactive). Besides, the GI50 in the assay on OVCAR-4, in the assay with BT-549, in the assay on SK-OV-3, with RXF 393, in the assay on UACC-257 and with OVCAR-3 was > 100 µM (inactive) throughout.
Regarding `CN1CCN(c2n[nH]c(=O)c3c2nnn3Cc2ccccc2)CC1`, the GI50 was > 100 µM (inactive) in the assay on SK-MEL-5; 5.89 µM (inactive) in the assay on PC-3; > 100 µM (inactive) with TK-10; > 100 µM (inactive) in the assay on SR; over 100 µM in the assay on HCT-15; > 100 µM (inactive) in the assay on NCI-H23. The GI50 in the assay with EKVX, in the assay with CCRF-CEM, in the assay on M14, in the assay with K562, in the assay with NCI/ADR-RES and in the assay with OVCAR-4 was > 100 µM (inactive) throughout. The GI50 in the assay with BT-549 was 41.5 µM (inactive); in the assay with SF-268 it was > 100 µM (inactive); in the assay with RXF 393 it was 86.7 µM (inactive); in the assay with UACC-257 it was > 100 µM (inactive); with OVCAR-3 it was > 100 µM (inactive).
`CSc1ccc(/C=C2\N=C(c3ccccc3)N(c3nc4cc(C)c(C)cc4s3)C2=O)cc1`: the GI50 was 21.4 µM (inactive) in the assay on SK-MEL-5; 22.4 µM (inactive) in the assay on PC-3; 17.9 µM (inactive) in the assay with SW-620; 94.4 µM (inactive) in the assay on TK-10; 25 µM (inactive) with SR; 40.7 µM in the assay with HCT-15. The GI50 in the assay on EKVX is 24.9 µM (inactive); with CCRF-CEM, 9.35 µM (inactive); in the assay with M14 it was 26.4 µM (inactive); with K562, 43.4 µM (inactive); in the assay with NCI/ADR-RES, 31.3 µM (inactive); in the assay on OVCAR-4 it was 26.5 µM (inactive). Also, the GI50 with BT-549 is 28.2 µM (inactive); with SF-268, 34.8 µM (inactive); with SK-OV-3, 46.5 µM (inactive); in the assay on RXF 393, 25 µM (inactive); in the assay with UACC-257, 43.3 µM (inactive); in the assay with OVCAR-3, 22.8 µM (inactive).
Consider `COc1ccc2c(c1)C(N)=C(Cc1ccncc1)C2=O`, for which the GI50 in the assay on SK-MEL-5 was > 100 µM (inactive); with PC-3 it was 91.8 µM (inactive); in the assay with A498 it was > 100 µM (inactive); with SW-620 it was > 100 µM (inactive); in the assay with TK-10, > 100 µM (inactive); in the assay on HCT-15, over 100 µM. For the same compound, the GI50 with NCI-H23 was > 100 µM (inactive); in the assay on EKVX, 53.5 µM (inactive); in the assay with CCRF-CEM it was 75.2 µM (inactive); in the assay on M14, > 100 µM (inactive); in the assay with K562 it was > 100 µM (inactive); in the assay on NCI/ADR-RES it was > 100 µM (inactive). For the same compound, the GI50 with OVCAR-4 was 98.4 µM (inactive); in the assay on BT-549, > 100 µM (inactive); with SF-268, > 100 µM (inactive); with SK-OV-3 it was > 100 µM (inactive); in the assay on RXF 393, > 100 µM (inactive); in the assay with UACC-257 it was > 100 µM (inactive). The GI50 with OVCAR-3 is > 100 µM (inactive).
Take `O=CC12CCCN1CCC2`: the GI50 in the assay on SK-MEL-5 was > 100 µM (inactive); with PC-3 it was > 100 µM (inactive); in the assay on SW-620 it was > 100 µM (inactive); in the assay with TK-10, > 100 µM (inactive); in the assay with SR, > 100 µM (inactive); with HCT-15, over 100 µM. The GI50 in the assay with NCI-H23, in the assay with EKVX, with CCRF-CEM, with M14, in the assay with K562 and in the assay on NCI/ADR-RES was > 100 µM (inactive) each time. The GI50 in the assay on OVCAR-4, in the assay on BT-549, with SK-OV-3, with RXF 393, in the assay on UACC-257 and in the assay on OVCAR-3 was > 100 µM (inactive) each time.
In the case of `COc1cc(/C=c2/c3ccccc3n3c2cc(-c2ccccc2)[n+]3C)cc(OC)c1OC`, the GI50 in the assay on SK-MEL-5 was 2.69 µM (inactive); in the assay with PC-3, 3.74 µM (inactive); in the assay with A498, 16 µM (inactive); in the assay on SW-620 it was 3.82 µM (inactive); with TK-10 it was 5.33 µM (inactive); in the assay with HCT-15, 4.39 µM. Also, the GI50 in the assay with NCI-H23 is 3.94 µM (inactive); with EKVX, 5.15 µM (inactive); with CCRF-CEM it was 3.52 µM (inactive); with M14 it was 4.95 µM (inactive); in the assay with K562, 2.74 µM (inactive); with NCI/ADR-RES, > 100 µM (inactive). The GI50 with OVCAR-4 was 3.46 µM (inactive); in the assay on BT-549, 3.78 µM (inactive); with SF-268 it was 6.73 µM (inactive); with SK-OV-3 it was 5.92 µM (inactive); in the assay with RXF 393 it was 2.74 µM (inactive); in the assay on UACC-257, 2.44 µM (inactive). The GI50 with OVCAR-3 is 2.43 µM (inactive).
`CC(NC(=O)C(NC(=O)OC(C)(C)C)C(C)C)C(=O)NCC(=O)ON1C(=O)CCC1=O` (stereo not drawn) (Boc-Val-Ala-Gly-OSu; configuration not given here): the GI50 is > 100 µM (inactive) in the assay with SK-MEL-5; > 100 µM (inactive) in the assay with PC-3; > 100 µM (inactive) in the assay on SW-620; > 100 µM (inactive) with TK-10; > 100 µM (inactive) in the assay on SR; over 100 µM with HCT-15. The GI50 was > 100 µM (inactive) with NCI-H23; > 100 µM (inactive) with EKVX; 88.1 µM (inactive) in the assay with M14; > 100 µM (inactive) in the assay on K562; > 100 µM (inactive) in the assay on NCI/ADR-RES; > 100 µM (inactive) with BT-549. In addition, the GI50 in the assay with SF-268, in the assay on SK-OV-3, in the assay on RXF 393, in the assay on UACC-257 and in the assay on OVCAR-3 was > 100 µM (inactive) each time.
